Assay results published in PubChem BioAssay AID2060890 (Molecular Pharmacology Branch, DTP, NCI, 2025).

System: LG0703-F948-PDC complex spheroid viability
Experiment: Anticancer human tumor LG0703-F948-PDC patient-derived lung adenocarcinoma cell line growth inhibition [RAS]
Settings: for IC50: curve of first compound; for viability, T/C: stronger effect = lower value
Summary of the method: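 Agents were tested in combination matrices in half-log decrements from a top concentration at or near clinical Cmax (10 microM if undetermined). Targets were multi-cell spheroids of tumour lines plus HUVEC and MSC stromal cells.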

[1] = second compound 0.000949 µM, first compound 0.0316 µM
[2] = second compound 0.000949 µM, first compound 0.1 µM
[3] = second compound 0.003 µM, first compound 0.0316 µM
[4] = second compound 0.003 µM, first compound 0.1 µM
[5] = second compound 0.00949 µM, first compound 0.0316 µM
[6] = second compound 0.00949 µM, first compound 0.1 µM
[7] = second compound 0.03 µM, first compound 0.0316 µM
[8] = second compound 0.03 µM, first compound 0.1 µM
[9] = second compound 0.0949 µM, first compound 0.0316 µM
[10] = second compound 0.0949 µM, first compound 0.1 µM
[11] = second compound 0.3 µM, first compound 0.0316 µM
[12] = second compound 0.3 µM, first compound 0.1 µM
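Further: spheroids exposed to agents for 7 days.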
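Wherever viability, T/C is given: 100% = DMSO vehicle wells.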

In the case of CC(=O)OC12COC1CC(O)C1(C)C(=O)C(O)C3=C(C)C(OC(=O)C(O)C(NC(=O)OC(C)(C)C)c4ccccc4)CC(O)(C(OC(=O)c4ccccc4)C21)C3(C)C (centres undefined) + CCn1c(-c2cc(N3CCN(C)CC3)cnc2C(C)OC)c2c3cc(ccc31)-c1csc(n1)CC(NC(=O)C1CC1C)C(=O)N1CCCC(N1)C(=O)OCC(C)(C)C2, the IC50 (second compound 0.000949 µM) is reported as under 31.6 nM, the IC50 (second compound 0.003 µM) is reported as under 31.6 nM and the IC50 (second compound 0.00949 µM) is reported as under 31.6 nM. For the same molecule, the IC50 (second compound 0.03 µM) was under 31.6 nM, the IC50 (second compound 0.0949 µM) was under 31.6 nM and the IC50 (second compound 0.3 µM) was under 31.6 nM. It also gave a viability, T/C [1] of 37.4%, a viability, T/C [2] of 33.5% and a viability, T/C (second compound 0.000949 µM, first compound 0.316 µM) of 37.2%. The viability, T/C (second compound 0.000949 µM, first compound 1 µM) was 30.1%, the viability, T/C (second compound 0.000949 µM, first compound 3.16 µM) was 25.9% and the viability, T/C (second compound 0.000949 µM, first compound 10 µM) was 19.9%. The viability, T/C [3] was 23.8%, the viability, T/C [4] was 17% and the viability, T/C (second compound 0.003 µM, first compound 0.316 µM) was 23%. The viability, T/C (second compound 0.003 µM, first compound 1 µM) was 15.7%, the viability, T/C (second compound 0.003 µM, first compound 3.16 µM) was 12.3% and the viability, T/C (second compound 0.003 µM, first compound 10 µM) was 14.2%. It also gave a viability, T/C [5] of 11.2%, a viability, T/C [6] of 13.6% and a viability, T/C (second compound 0.00949 µM, first compound 0.316 µM) of 12.8%. For the same molecule, the viability, T/C (second compound 0.00949 µM, first compound 1 µM) was 12%, the viability, T/C (second compound 0.00949 µM, first compound 3.16 µM) was 7.75% and the viability, T/C (second compound 0.00949 µM, first compound 10 µM) was 7.15%. It also gave a viability, T/C [7] of 6.77%, a viability, T/C [8] of 7.29% and a viability, T/C (second compound 0.03 µM, first compound 0.316 µM) of 9.54%. The viability, T/C (second compound 0.03 µM, first compound 1 µM) was 7.24%, the viability, T/C (second compound 0.03 µM, first compound 3.16 µM) was 6.73% and the viability, T/C (second compound 0.03 µM, first compound 10 µM) was 4.63%. For the same molecule, the viability, T/C [9] was 7.39%, the viability, T/C [10] was 5.34% and the viability, T/C (second compound 0.0949 µM, first compound 0.316 µM) was 4.2%. The viability, T/C (second compound 0.0949 µM, first compound 1 µM) was 4.62%, the viability, T/C (second compound 0.0949 µM, first compound 3.16 µM) was 4% and the viability, T/C (second compound 0.0949 µM, first compound 10 µM) was 2.6%. For the same molecule, the viability, T/C [11] was 9.13%, the viability, T/C [12] was 5.01% and the viability, T/C (second compound 0.3 µM, first compound 0.316 µM) was 3.87%. For the same molecule, the viability, T/C (second compound 0.3 µM, first compound 1 µM) was 4.26%, the viability, T/C (second compound 0.3 µM, first compound 3.16 µM) was 3.58% and the viability, T/C (second compound 0.3 µM, first compound 10 µM) was 2.37%.
CC(C)n1nc(-c2ccc3oc(N)nc3c2)c2c(N)ncnc21 + CCn1c(-c2cccnc2C(C)OC)c2c3cc(ccc31)N1CCOC(CC(NC(=O)C(C(C)C)N(C)C(=O)C3(F)CCN(C(=O)C#CC(C)(C)N(C)C)CC3)C(=O)N3CCCC(N3)C(=O)OCC(C)(C)C2)C1 was tested, and the IC50 (second compound 0.000949 µM) was 6.03 nM, the IC50 (second compound 0.003 µM) was 8.31 nM and the IC50 (second compound 0.00949 µM) was 7.72 nM. The IC50 (second compound 0.03 µM) was 8.1 nM, the IC50 (second compound 0.0949 µM) was 1.85 nM and the IC50 (second compound 0.3 µM) was under 0.316 nM. The viability, T/C (second compound 0.000949 µM, first compound 0.000316 µM) was 105%, the viability, T/C (second compound 0.000949 µM, first compound 0.001 µM) was 72.7% and the viability, T/C (second compound 0.000949 µM, first compound 0.00316 µM) was 64.1%. For the same molecule, the viability, T/C (second compound 0.000949 µM, first compound 0.01 µM) was 43.5%, the viability, T/C [1] was 27% and the viability, T/C [2] was 19.9%. It also gave a viability, T/C (second compound 0.003 µM, first compound 0.000316 µM) of 87%, a viability, T/C (second compound 0.003 µM, first compound 0.001 µM) of 79.4% and a viability, T/C (second compound 0.003 µM, first compound 0.00316 µM) of 65%. For the same molecule, the viability, T/C (second compound 0.003 µM, first compound 0.01 µM) was 49.8%, the viability, T/C [3] was 25.5% and the viability, T/C [4] was 17.9%. For the same molecule, the viability, T/C (second compound 0.00949 µM, first compound 0.000316 µM) was 88.2%, the viability, T/C (second compound 0.00949 µM, first compound 0.001 µM) was 83.8% and the viability, T/C (second compound 0.00949 µM, first compound 0.00316 µM) was 59.9%. The viability, T/C (second compound 0.00949 µM, first compound 0.01 µM) was 48.2%, the viability, T/C [5] was 28.7% and the viability, T/C [6] was 17.2%. The viability, T/C (second compound 0.03 µM, first compound 0.000316 µM) was 92.4%, the viability, T/C (second compound 0.03 µM, first compound 0.001 µM) was 87.6% and the viability, T/C (second compound 0.03 µM, first compound 0.00316 µM) was 68.8%. It also gave a viability, T/C (second compound 0.03 µM, first compound 0.01 µM) of 46.8%, a viability, T/C [7] of 23.9% and a viability, T/C [8] of 15.6%. The viability, T/C (second compound 0.0949 µM, first compound 0.000316 µM) was 67.4%, the viability, T/C (second compound 0.0949 µM, first compound 0.001 µM) was 57.5% and the viability, T/C (second compound 0.0949 µM, first compound 0.00316 µM) was 41.2%. The viability, T/C (second compound 0.0949 µM, first compound 0.01 µM) was 36.8%, the viability, T/C [9] was 18.5% and the viability, T/C [10] was 13.2%. It also gave a viability, T/C (second compound 0.3 µM, first compound 0.000316 µM) of 43.3%, a viability, T/C (second compound 0.3 µM, first compound 0.001 µM) of 36.8% and a viability, T/C (second compound 0.3 µM, first compound 0.00316 µM) of 29.3%. For the same molecule, the viability, T/C (second compound 0.3 µM, first compound 0.01 µM) was 21.9%, the viability, T/C [11] was 11.7% and the viability, T/C [12] was 8.29%.
